Drawing on PubChem BioAssay AID463206 (Broad Institute, 2010), this text covers AC50 for 35 compounds.

Structures are written as SMILES. Calls of active or inactive are those of the source.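 Rule for the calls: active = caspase luminescence falls with dose and the half-maximal concentration AC50 from the fitted curve is at or below a set limit; inconclusive = flat fit at 30 to 70% signal loss, or invalid fit; inactive = AC50 above the limit, or signal rises instead.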

This assay concerns INS-1E cytokine-induced caspase-3/7, Caspase-Glo luminescence, 48 h. Nature of the assay: suppression of cytokine-driven beta-cell apoptosis – INS-1E rat cells, luminescence, orthogonal assay for beta-cell apoptosis protection project, dose response (AID 463206).

Turning to `O=C(OCn1ncc(Br)c(Br)c1=O)c1ccccc1Cl`, the AC50 is > 26 µM (inactive). `COc1ccc2c(c1)[nH]c1c(N3CCN(Cc4ccc5c(c4)OCO5)CC3)ncnc12`: the AC50 is > 26 µM (inactive). With `Nc1cc2c3c(cccc3c1)C(=O)N(CCN1CCCC1)C2=O`, the AC50 was 15.4 µM.

In the case of `CC1Cc2ccccc2N1C(=O)CSc1nc2ccccc2o1` (stereo not given), the AC50 is > 26 µM (inactive).

Consider `O=C(NCC#CCSc1nnc(-c2cccc3ccccc23)o1)c1cccs1`, for which the AC50 was > 26 µM (inactive).

For `Cc1nn(-c2nc3ccccc3[nH]2)c(=O)c2ccccc12`, the AC50 is > 26 µM (inactive). The figure for `CCCCCCCCCCOC(=O)Cn1c(COc2cccc(C)c2)[n+](C)c2ccccc21` is > 26 µM (inactive); for `CCOc1ccc(-n2c(=O)[nH]cc(C(=O)Nc3ccc(OC)c(OC)c3)c2=O)cc1` it is > 26 µM (inactive).

Regarding `CCCC(=O)NC(c1ccc(Cl)cc1Cl)c1ccc2cccnc2c1O` (stereo not given), the AC50 is > 12 µM (inactive). The figure for `COC(=O)c1ccc(COc2ccccc2/C=C(\C#N)C(=O)Nc2c(C)cccc2C)cc1` is > 26 µM (inactive).

With `CC(C)(C)c1cc(C=C(C#N)C#N)cc(C(C)(C)C)c1O`, the AC50 is > 26 µM (inactive).

For the compound `COc1cc2ccccc2cc1C(=O)Nc1sc2c(c1C(N)=O)CCN(C(C)C)C2`, the AC50 was 9.32 µM. As to `O=C(Nc1nc(-c2ccccn2)cs1)c1cccc(-n2cnnn2)c1`, the AC50 is > 26 µM (inactive). In the case of `CCOc1cc(/C=N/Nc2cc(C)nc(-n3nc(C)cc3C)n2)ccc1O` it was > 26 µM (inactive); in that of `Cc1ccc(C(C)C)c(OCc2ccc(C(=O)N/N=C/c3ccc(O)cc3O)cc2)c1`, > 26 µM (inactive). Consider `Cc1cccnc1Nc1nc(-c2ccccn2)cs1`, for which the AC50 is > 26 µM (inactive). As for `C/C(=N\NC(=O)C(C)Oc1ccc([N+](=O)[O-])cc1)c1ccccn1` (stereo not given), the AC50 was > 26 µM (inactive).

Regarding `N/C(=N\OC(=O)c1cccc(Cn2cc(C(F)(F)F)ccc2=O)c1)c1ccccc1`, the AC50 is > 26 µM (inactive). For the compound `CCOc1ccc(-c2c[n+]3c(n2-c2ccccc2)CCCCC3)cc1`, the AC50 was > 26 µM (inactive). As for `O=C1C(=O)c2c(C(=O)c3ccccc3)coc2-c2ccccc21`, the AC50 was > 26 µM (inactive). Turning to `CC(C)c1ccccc1-n1c(SCC(=O)N2CCc3ccccc3C2)nc2ccccc2c1=O`, the AC50 was > 26 µM (inactive). As for `Cc1ccccc1OC1C(=O)N(Cc2ccc3c(c2)OCO3)C1c1sccc1C` (stereo not given), the AC50 is > 26 µM (inactive). As to `Cn1cccc1C1C=C(c2ccc(C(C)(C)C)cc2)Nc2ncnn21` (stereo not given), the AC50 is > 26 µM (inactive).

As for `Cc1sc2ncnc(N3CCN(S(=O)(=O)c4ccccc4)CC3)c2c1C`, the AC50 was > 26 µM (inactive). For `O=C(Nc1ccc(Cl)cc1)Nc1nnc(CSCc2ccc(Cl)cc2)s1`, the AC50 is > 26 µM (inactive).

Turning to `O=C(Nc1cc(Sc2ccccn2)cc([N+](=O)[O-])c1)c1ccc(Cl)cc1`, the AC50 is > 26 µM (inactive). `Cc1nn(-c2ccccc2)c(C)c1NC(=O)COc1ccc(Br)cc1Cl`: the AC50 was > 26 µM (inactive). `Cc1cc2c(NCCc3ccccc3)ncnc2s1`: the AC50 is > 26 µM (inactive). In the case of `CCCc1cc(=O)n2[nH]cc(-c3ccc(Cl)cc3)c2n1`, the AC50 was > 26 µM (inactive).

Take `O=C(Nc1nc(-c2ccccn2)cs1)Nc1ccc(F)cc1F`: the AC50 is > 26 µM (inactive). Turning to `CCOC(=O)CC1CCCCN1C(=O)c1cc(COc2cccc3cnccc23)on1` (stereo not given), the AC50 is > 26 µM (inactive). In the case of `Cc1ccc(C2CC(c3cccc(Br)c3)n3nc(N)nc3N2)cc1` (stereo not given) it was > 26 µM (inactive). On to `COc1ccc(C(NC(C)=O)c2ccc3cccnc3c2O)c(OC)c1` (stereo not given), for which the AC50 is > 26 µM (inactive). In the case of `Cc1cccc(C2(c3cccc(C)c3)OC(=O)c3ccccc32)c1`, the AC50 was > 26 µM (inactive). In the case of `Cc1ccc(N=Nc2ccc(O)c3ncccc23)cc1`, the AC50 is > 26 µM (inactive).
